{"source": "ChEMBL document CHEMBL3526037", "about": "“Evaluation of the relationship between sex, polymorphisms in CYP2C8 and CYP2C9, and pharmacokinetics of angiotensin receptor blockers” (Drug Metab Dispos, 2013)", "format_in_all_cases": "ADME, organism-based", "key": {"[1]": {"assay": "Cmax in human plasma expressing CYP2C8*3 allele carrier polymorphism at 80 mg by LC/MS/MS analysis", "parameters": "dose 80 mg"}, "[2]": {"assay": "Tmax in human plasma expressing CYP2C9*3 allele carrier polymorphism at 80 mg by LC/MS/MS analysis"}, "[3]": {"assay": "Tmax in human plasma expressing CYP2C8*1/*1 polymorphism at 80 mg by LC/MS/MS analysis"}, "[4]": {"assay": "AUC in men plasma at 80 mg by LC/MS/MS analysis", "conditions": "male, human"}, "[5]": {"assay": "AUC in human plasma expressing CYP2C8*2 allele carrier polymorphism at 80 mg by LC/MS/MS analysis"}, "[6]": {"assay": "AUC in human plasma expressing CYP2C8*1/*1 polymorphism at 80 mg by LC/MS/MS analysis"}, "[7]": {"assay": "Cmax in women plasma at 80 mg by LC/MS/MS analysis", "parameters": "dose 80 mg", "conditions": "female, human"}, "[8]": {"assay": "Cmax in human plasma expressing CYP2C9*1/*1 polymorphism at 80 mg by LC/MS/MS analysis", "parameters": "dose 80 mg"}, "[9]": {"assay": "Tmax in human plasma expressing CYP2C9*1/*1 polymorphism at 80 mg by LC/MS/MS analysis"}, "[10]": {"assay": "Half life in women plasma at 80 mg by LC/MS/MS analysis", "conditions": "female, human"}, "[11]": {"assay": "Half life in human plasma expressing CYP2C8*1/*1 polymorphism at 80 mg by LC/MS/MS analysis"}, "[12]": {"assay": "Half life in human plasma expressing CYP2C8*2 allele carrier polymorphism at 80 mg by LC/MS/MS analysis"}, "[13]": {"assay": "AUC in women plasma at 80 mg by LC/MS/MS analysis", "conditions": "female, human"}, "[14]": {"assay": "AUC in human plasma expressing CYP2C8*3 allele carrier polymorphism at 80 mg by LC/MS/MS analysis"}, "[15]": {"assay": "Half life in men plasma at 80 mg by LC/MS/MS analysis", "conditions": "male, human"}, "[16]": {"assay": "Cmax in human plasma expressing CYP2C8*1/*1 polymorphism at 80 mg by LC/MS/MS analysis", "parameters": "dose 80 mg"}, "[17]": {"assay": "AUC in human plasma expressing CYP2C9*1/*1 polymorphism at 80 mg by LC/MS/MS analysis"}, "[18]": {"assay": "Half life in human plasma expressing CYP2C9*1/*1 polymorphism at 80 mg by LC/MS/MS analysis"}, "[19]": {"assay": "Tmax in women plasma at 80 mg by LC/MS/MS analysis", "conditions": "female, human"}, "[20]": {"assay": "Cmax in men plasma at 80 mg by LC/MS/MS analysis", "parameters": "dose 80 mg", "conditions": "male, human"}, "[21]": {"assay": "Tmax in men plasma at 80 mg by LC/MS/MS analysis", "conditions": "male, human"}, "[22]": {"assay": "AUC in human plasma expressing CYP2C9*3 allele carrier polymorphism at 80 mg by LC/MS/MS analysis"}, "[23]": {"assay": "Half life in human plasma expressing CYP2C9*3 allele carrier polymorphism at 80 mg by LC/MS/MS analysis"}, "[24]": {"assay": "Cmax in human plasma expressing CYP2C8*2 allele carrier polymorphism at 80 mg by LC/MS/MS analysis", "parameters": "dose 80 mg"}, "[25]": {"assay": "Cmax in human plasma expressing CYP2C9*3 allele carrier polymorphism at 80 mg by LC/MS/MS analysis", "parameters": "dose 80 mg"}, "[26]": {"assay": "Tmax in human plasma expressing CYP2C8*3 allele carrier polymorphism at 80 mg by LC/MS/MS analysis"}, "[27]": {"assay": "Half life in human plasma expressing CYP2C8*3 allele carrier polymorphism at 80 mg by LC/MS/MS analysis"}, "[28]": {"assay": "Tmax in human plasma expressing CYP2C8*2 allele carrier polymorphism at 80 mg by LC/MS/MS analysis"}}}
{"compound": "CCCc1nc2c(C)cc(-c3nc4ccccc4n3C)cc2n1Cc1ccc(-c2ccccc2C(=O)O)cc1", "values": [{"measurement": "Cmax", "setting": "[1]", "value": 494, "unit": "ng/mL"}, {"measurement": "Tmax", "setting": "[2]", "value": 1.1, "unit": "h"}, {"measurement": "Tmax", "setting": "[3]", "value": 1.4, "unit": "h"}, {"measurement": "AUC", "setting": "[4]", "value": 2470, "unit": "ng·h/mL"}, {"measurement": "AUC", "setting": "[5]", "value": 3680, "unit": "ng·h/mL"}, {"measurement": "AUC", "setting": "[6]", "value": 3010, "unit": "ng·h/mL"}, {"measurement": "Cmax", "setting": "[7]", "value": 590, "unit": "ng/mL"}, {"measurement": "Cmax", "setting": "[8]", "value": 446, "unit": "ng/mL"}, {"measurement": "Tmax", "setting": "[9]", "value": 1.4, "unit": "h"}, {"measurement": "half-life", "setting": "[10]", "value": 33.1, "unit": "h"}, {"measurement": "half-life", "setting": "[11]", "value": 28.7, "unit": "h"}, {"measurement": "half-life", "setting": "[12]", "value": 29.1, "unit": "h"}, {"measurement": "AUC", "setting": "[13]", "value": 3680, "unit": "ng·h/mL"}, {"measurement": "AUC", "setting": "[14]", "value": 3230, "unit": "ng·h/mL"}, {"measurement": "half-life", "setting": "[15]", "value": 25.1, "unit": "h"}, {"measurement": "Cmax", "setting": "[16]", "value": 437, "unit": "ng/mL"}, {"measurement": "AUC", "setting": "[17]", "value": 3130, "unit": "ng·h/mL"}, {"measurement": "half-life", "setting": "[18]", "value": 29.7, "unit": "h"}, {"measurement": "Tmax", "setting": "[19]", "value": 1.4, "unit": "h"}, {"measurement": "Cmax", "setting": "[20]", "value": 282, "unit": "ng/mL"}, {"measurement": "Tmax", "setting": "[21]", "value": 1.3, "unit": "h"}, {"measurement": "AUC", "setting": "[22]", "value": 3400, "unit": "ng·h/mL"}, {"measurement": "half-life", "setting": "[23]", "value": 30.1, "unit": "h"}, {"measurement": "Cmax", "setting": "[24]", "value": 498, "unit": "ng/mL"}, {"measurement": "Cmax", "setting": "[25]", "value": 510, "unit": "ng/mL"}, {"measurement": "Tmax", "setting": "[26]", "value": 1, "unit": "h"}, {"measurement": "half-life", "setting": "[27]", "value": 33.9, "unit": "h"}, {"measurement": "Tmax", "setting": "[28]", "value": 1.3, "unit": "h"}]}
